Results from patent US20040138274A1, “Novel pharmaceuticals” (priority 2002, published 2004).

Experiments:
hypertensive patients = settings: added to the ACE inhibitor lisinopril; clinical study involving 37 hypertensive patients; cited from earlier work
NEP from human kidney = target: T1, NEP from human kidney (Homo sapiens, UniProt P08473); test: Assay 2: modified NEP fluorescence assay for potent tight-binding inhibitors; assay type: biochemical; settings: as determined by Assay 2, substrate Abz-D-Arg-Arg-Leu-EDDnp, read-out: IC50 against NEP
T1 construct: Enzyme: NEP from human kidney (prepared using the method of Kenny and Booth); from tissue; host or cells: human kidney
T1 sequence (P08473 whole entry): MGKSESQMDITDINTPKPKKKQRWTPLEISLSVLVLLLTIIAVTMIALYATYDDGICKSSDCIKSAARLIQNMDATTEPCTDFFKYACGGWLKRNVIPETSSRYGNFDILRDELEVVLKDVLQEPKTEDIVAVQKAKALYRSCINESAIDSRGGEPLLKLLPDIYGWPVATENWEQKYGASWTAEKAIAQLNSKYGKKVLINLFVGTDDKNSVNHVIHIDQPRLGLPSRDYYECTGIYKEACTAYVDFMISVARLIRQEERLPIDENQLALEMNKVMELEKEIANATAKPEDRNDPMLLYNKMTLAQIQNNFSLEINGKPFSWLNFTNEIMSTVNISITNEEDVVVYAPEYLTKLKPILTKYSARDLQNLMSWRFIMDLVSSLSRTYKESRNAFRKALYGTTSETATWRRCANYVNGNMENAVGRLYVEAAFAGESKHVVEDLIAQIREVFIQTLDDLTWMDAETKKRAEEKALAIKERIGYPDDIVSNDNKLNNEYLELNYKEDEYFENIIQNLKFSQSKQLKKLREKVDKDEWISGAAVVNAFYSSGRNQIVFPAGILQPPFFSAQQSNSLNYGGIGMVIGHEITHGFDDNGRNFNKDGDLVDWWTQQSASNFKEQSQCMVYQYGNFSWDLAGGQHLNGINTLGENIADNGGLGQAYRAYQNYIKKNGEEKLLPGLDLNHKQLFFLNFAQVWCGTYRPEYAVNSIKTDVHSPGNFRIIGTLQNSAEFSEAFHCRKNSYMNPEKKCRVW
Procedure: Assay 2: This is a modification of Assay 1 which is adapted for potent tight-binding inhibitors.
Buffer: 50 mM Tris pH 7.4
Buffer containing 4% DMSO: 4 ml DMSO added to 96 ml buffer
Enzyme: NEP from human kidney (prepared using the method of Kenny and Booth, Biochem. J. 142, 575, 1974) aliquots stored at −70° C. The NEP activity of each preparation is determined by using serial dilutions of the preparation in this assay without inhibitor, a dilution that achieves 10 to 15% conversion of substrate is used in inhibitor studies.
Inhibitors: Inhibitors are dissolved in DMSO to give a 10 mM solution then further diluted to 1 mM in DMSO. A further dilution is made (40 μl into 960 μl buffer) to give 4×10^−5M inhibitor in buffer containing 4% DMSO. All further dilutions are made in buffer containing 4% DMSO. Inhibitors are assayed utilising an eight point (half log units) dose response curve in duplicate.
Substrate: The substrate (Abz-D-Arg-Arg-Leu-EDDnp, K. M. Carvalho et al. Analytical Biochem 237, 167-173 (1996)) is stored at −70° C. A 2 mM stock is made in buffer and aliquots stored at −70° C. for up to 1 month.
Stop solution: Phosphoramidon (Sigma R7385) 300 nM in buffer. Aliquots of 300 μM solution are stored at −20° C. and diluted 1000 fold in buffer.
Product: Two samples corresponding to 100% conversion of substrate to product are included in the assay to enable the % substrate turnover to be determined. Add 200 μl of 25 μM product and 100 μl stop solution. A stock of this is generated by incubating 1 ml of 25 μM substrate with 20 μl of enzyme stock overnight at 37° C., aliquot and store at −70° C.
Plates: Black Costar 96 well plate Cat# 3915
Fluorescence reader: BMG Fluostar, read at ex320 em420
1. Add 50 μl of inhibitor (4× assay conc)
3. Add 50 μl of enzyme dilution (1:800)
4. Incubate at 37° C. for 1 hour
5. Initiate the reaction by adding 20 μl of substrate
5. Incubate at 37° C. for 3 hours
6. Add 100 μl of stop solution.
7. Read fluorescence using a FLUOstar. (Ex320/Em420
Included in each assay are:
Non enzyme blanks (enzyme replaced with buffer and compound dilution replaced with 4% DMSO buffer)
Controls (compound dilution replaced with 4% DMSO buffer)
Total product (see below)

[1] = tested on: black patients with essential hypertension; settings: clinical study of 24 black patients with essential hypertension; cited from earlier work
hypertensive rats = settings: cited from earlier work

SMILES | IC50 (NEP from human kidney) | other results
COCCOC[C@H](CC1(C(=O)N[C@H]2CC[C@@H](C(=O)O)CC2)CCCC1)C(=O)Oc1ccc2c(c1)CCC2 [candoxatril] |  | supine and erect blood pressure (hypertensive patients): marked reduction in both supine and erect blood pressure
CC1(C)OCC(COC(=O)C(Cc2ccccc2)N[C@@H](Cc2ccccc2)C(=O)NCCC(=O)O)O1 (stereo partly shown) [SCH34826] |  | supine blood pressure [1]: significantly lowered supine blood pressure
COCC[C@H](CC1(C(=O)N[C@@H](Cc2ncc(-c3ccc(Cl)cc3)o2)C(=O)O)CCCC1)C(=O)O [Example 30, (2S)-2-(1-{(1S)-1-Carboxy-2-[5-(4-chloro-phenyl)-oxazol-2-yl]-ethylcarbamoyl}-cyclopentylmethyl)-4-methoxy-butyric Acid] | 0.3 nM | 
COCCOC[C@H](CC1(C(=O)N[C@H]2CC[C@@H](C(=O)O)CC2)CCCC1)C(=O)O [candoxatrilat] |  | systolic blood pressure (hypertensive rats): lowers systolic blood pressure

More lines, main results first:

IC50 (NEP from human kidney) | SMILES | other results
0.3 nM | COCC[C@H](CC1(C(=O)N[C@@H](Cc2ncc(-c3ccccc3)o2)C(=O)O)CCCC1)C(=O)O [Example 40, (2S)-2-{1-[(1S)-1-Carboxy-2-(5-phenyl-oxazol-2-yl)-ethylcarbamoyl]-cyclopentylmethyl}-4-methoxy-butyric Acid] | 
0.7 nM | CCC[C@H](CC1(C(=O)N[C@@H](Cc2ncc(-c3ccccc3)o2)C(=O)O)CCCC1)C(=O)O [Example 29, (2R)-2-{1-[(1S)-1-Carboxy-2-(5-phenyl-oxazol-2-yl)-ethylcarbamoyl]-cyclopentylmethyl}-pentanoic Acid] | 
0.3 nM | COCC[C@H](CC1(C(=O)N[C@@H](Cc2ncc(-c3ccc(F)cc3)o2)C(=O)O)CCCC1)C(=O)O [Example 26] | 
